In patent US6730792B2, “β3 adrenergic agonists” (Eli Lilly and Company, priority 2000, dated 2004):

Molecular target: T1, human β3 adrenergic receptor (Homo sapiens, UniProt P13945)
T1 construct: expressed in transfected cells; host or cells: DXB-11 Chinese hamster ovary (CHO) cell line, stably transfected (phd expression vector)
Assay: whole cell receptor coupled c-AMP assay, human β3 receptor in CHO cells (EC50, Emax relative to isoproterenol)
Type: cell-based
Conditions: % intrinsic activity relative to isoproterenol maximal response; average of at least 3 runs; c-AMP in transfected CHO cells
Outline: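 Stably transfected DXB-11 CHO cells (20,000/well) were exposed to compound for 20 min at 37 °C in HBSS/HEPES buffer with 1 mM IBMX, pH 7.4. cAMP was measured by SPA. EC50 came from a four-parameter logistic fit, and Emax is the maximal response as a percentage of isoproterenol's.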

T1 sequence (P13945 whole entry): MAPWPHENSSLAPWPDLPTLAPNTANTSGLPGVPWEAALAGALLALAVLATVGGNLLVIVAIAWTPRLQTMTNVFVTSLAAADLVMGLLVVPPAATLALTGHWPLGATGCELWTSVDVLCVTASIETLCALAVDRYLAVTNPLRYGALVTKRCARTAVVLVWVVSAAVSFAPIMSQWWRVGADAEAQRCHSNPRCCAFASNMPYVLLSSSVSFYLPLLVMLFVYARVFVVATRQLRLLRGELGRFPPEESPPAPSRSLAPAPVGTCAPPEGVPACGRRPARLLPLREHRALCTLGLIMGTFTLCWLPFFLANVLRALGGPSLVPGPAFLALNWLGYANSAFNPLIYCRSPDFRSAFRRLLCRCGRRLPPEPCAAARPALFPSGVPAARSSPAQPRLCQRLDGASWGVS

Structure (SMILES) | Emax (%) ± SEM [%]
CC(C)(Cc1ccc(Oc2ccc(C(N)=O)cn2)cc1)NC[C@H](O)COc1ccccc1-c1cc2ccccc2o1 [Example 370] | 40.3 ± 2.8
CC(C)(Cc1ccc(Oc2ncccc2C#N)cc1)NC[C@H](O)COc1ccccc1-c1cc2ccccc2o1 [Example 371] | 38.9 ± 3.9
CC(C)(Cc1ccc(Oc2ncccc2C(N)=O)cc1)NC[C@H](O)COc1ccccc1-c1cc2ccccc2o1 [Example 372] | 56.3 ± 4.8
CC(C)(Cc1ccc(Oc2ccc(C#N)cn2)cc1)NC[C@H](O)COc1ccccc1-c1ccncc1 [Example 373] | 29.0 ± 6.8
CC(C)(Cc1ccc(Oc2ncccc2C(N)=O)cc1)NC[C@H](O)COc1ccccc1-c1ccsc1.O=C(O)C(F)(F)F [Example 381] | 58.5 ± 6.9
CC(C)(Cc1ccc(Oc2ccc(C#N)cn2)cc1)NC[C@H](O)COc1ccccc1-c1cc2ccccc2s1 [Example 384] | 45.4 ± 5.6
CC(C)(Cc1ccc(Oc2ccc(C(N)=O)cn2)cc1)NC[C@H](O)COc1ccccc1-c1cc2ccccc2s1 [Example 385] | 43.1 ± 4.3
CC(C)(Cc1ccc(Oc2ncccc2C(N)=O)cc1)NC[C@H](O)COc1ccccc1-c1cc2ccccc2s1.O=C(O)C(F)(F)F [Example 387] | 78.7 ± 14.9
CC(C)(Cc1ccc(Oc2ccc(C#N)cn2)cc1)NC[C@H](O)COc1ccccc1-c1cccnc1 [Example 388] | <10
CC(C)(Cc1ccc(Oc2ccc(C(N)=O)cn2)cc1)NC[C@H](O)COc1ccccc1-c1cccnc1 [Example 389] | 20.3 ± 2.0
CC(C)(Cc1ccc(Oc2ncccc2C#N)cc1)NC[C@H](O)COc1ccccc1-c1cccnc1 [Example 390] | 14.4 ± 1.7
CC(C)(Cc1ccc(Oc2ncccc2C(N)=O)cc1)NC[C@H](O)COc1ccccc1-c1cccnc1 [Example 391] | 22.5 ± 1.5

The next lines start with the values.

Emax (%) ± SEM [%] | Structure (SMILES)
49.3 ± 0.3 | CC(C)(Cc1ccc(Oc2ccc(C(N)=O)cn2)cc1)NC[C@H](O)COc1ccccc1-c1ccncc1 [Example 374]
35.1 ± 7.3 | CC(C)(Cc1ccc(Oc2ncccc2C#N)cc1)NC[C@H](O)COc1ccccc1-c1ccncc1 [Example 375]
48.2 ± 6.7 | CC(C)(Cc1ccc(Oc2ncccc2C(N)=O)cc1)NC[C@H](O)COc1ccccc1-c1ccncc1 [Example 376]
33.0 ± 4.2 | CC(C)(Cc1ccc(Oc2ccc(S(C)(=O)=O)cc2)cc1)NC[C@H](O)COc1ccccc1-c1ccncc1.Cl.Cl [Example 377]
60.2 ± 3.2 | CC(C)(Cc1ccc(Oc2ccc(C#N)cn2)cc1)NC[C@H](O)COc1ccccc1-c1ccsc1 [Example 378]
37.7 ± 1.6 | CC(C)(Cc1ccc(Oc2ccc(C(N)=O)cn2)cc1)NC[C@H](O)COc1ccccc1-c1ccsc1 [Example 379]
57.4 ± 4.1 | CC(C)(Cc1ccc(Oc2ncccc2C#N)cc1)NC[C@H](O)COc1ccccc1-c1ccsc1 [Example 380]
32.3 ± 1.9 | CC(C)(Cc1ccc(Oc2ccc(S(C)(=O)=O)cc2)cc1)NC[C@H](O)COc1ccccc1-c1ccsc1.Cl [Example 382]
52.1 ± 5.4 | CC(C)(Cc1ccc(Oc2ccc(S(C)(=O)=O)cc2)cc1)NC[C@H](O)COc1ccccc1-c1cccs1.Cl [Example 383]
46.9 ± 6.7 | CC(C)(Cc1ccc(Oc2ncccc2C#N)cc1)NC[C@H](O)COc1ccccc1-c1cc2ccccc2s1 [Example 386]
17.6 ± 0.4 | CC(C)(Cc1ccc(Oc2ccc(S(C)(=O)=O)cc2)cc1)NC[C@H](O)COc1ccccc1-c1cccnc1.Cl.Cl [Example 392]
50.0 ± 3.6 | CC(C)(Cc1ccc(Oc2ccc(S(C)(=O)=O)cc2)cc1)NC[C@H](O)COc1ccccc1-c1ccc(Cl)s1.Cl [Example 393]
76.9 ± 5.0 | CC(=O)c1ccc(-c2ccccc2OC[C@@H](O)CNC(C)(C)Cc2ccc(Oc3ccc(S(C)(=O)=O)cc3)cc2)s1.Cl [Example 394]
46.6 ± 5.9 | CC(C)(Cc1ccc(Oc2ccc(S(C)(=O)=O)cc2)cc1)NC[C@H](O)COc1ccccc1-c1ccco1.Cl [Example 395]
50.5 ± 1.9 | Cc1ccc(-c2ccccc2OC[C@@H](O)CNC(C)(C)Cc2ccc(Oc3ccc(S(C)(=O)=O)cc3)cc2)s1.Cl [Example 396]

Same assay, conditions: Emax ± SEM; average of at least 3 runs except as otherwise indicated; tested as the isolated form listed

Structure (SMILES) | Emax (%) ± SEM [%]
CC(C)(Cc1ccc(Oc2ccccc2C(N)=O)cc1)NC[C@H](O)COc1ccccc1-c1ccon1.Cl [Example 301] | 69.2 ± 1.2
CC(C)(Cc1ccc(Oc2ccc(C#N)cn2)cc1)NC[C@H](O)COc1ccccc1-c1ccoc1.Cl [Example 305] | 68.8 ± 6.5
CC(C)(Cc1ccc(Oc2cccnc2C#N)cc1)NC[C@H](O)COc1ccccc1-c1ccoc1.Cl [Example 307] | 74.4 ± 1.8
CC(C)(Cc1ccc(Oc2ncccc2C(N)=O)cc1)NC[C@H](O)COc1ccccc1-c1ncco1.Cl [Example 308] | 71.2 ± 5.8
CC(C)(Cc1ccc(Oc2ccc(C(N)=O)o2)cc1)NC[C@H](O)COc1ccccc1-c1nccs1.O=C(O)C(F)(F)F [Example 327] | 56.7 ± 2.1
CC(C)(Cc1ccc(Oc2ccc(C#N)s2)cc1)NC[C@H](O)COc1ccccc1-c1nccs1.O=C(O)C(F)(F)F [Example 328] | 57.4 ± 6.5
CC(C)(Cc1ccc(Oc2ccc(C(N)=O)s2)cc1)NC[C@H](O)COc1ccccc1-c1nccs1.O=C(O)C(F)(F)F [Example 329] | 60.2 ± 3.0
CC(C)(Cc1ccc(Oc2ccc(C#N)o2)cc1)NC[C@H](O)COc1ccccc1-c1nccs1.O=C(O)C(F)(F)F [Example 330] | 55.9 ± 2.8
CC(C)(Cc1ccc(Oc2ccc(C#N)nc2)cc1)NC[C@H](O)COc1ccccc1-c1ncco1.O=C(O)C(F)(F)F [Example 364] | 69.2 ± 2.5
CC(C)(Cc1ccc(Oc2ccccc2C(N)=O)cc1)NC[C@H](O)COc1ccccc1-c1ncco1.O=C(O)C(F)(F)F [Example 365] | 80.2 ± 5.6

Second part, the compound after the results:

Emax (%) ± SEM [%] | Structure (SMILES)
52.2 ± 5.9 | CC(C)(Cc1ccc(Oc2ccc(C#N)nc2)cc1)NC[C@H](O)COc1ccccc1-c1ccon1.Cl [Example 300]
67.9 ± 6.1 | CC(C)(Cc1ccc(Oc2ncccc2C(N)=O)cc1)NC[C@H](O)COc1ccccc1-c1ccoc1.Cl [Example 303]
44.8 ± 4.9 | CC(C)(Cc1ccc(Oc2ccc(S(C)(=O)=O)cc2)cc1)NC[C@H](O)COc1ccccc1-c1ccoc1.Cl [Example 304]
82.4 ± 4.0 | CC(C)(Cc1ccc(Oc2ncccc2C#N)cc1)NC[C@H](O)COc1ccccc1-c1ccoc1.Cl [Example 306]

Same assay, conditions: Emax ± standard error of the mean; average of at least 3 runs except where n = 1; compound tested in the isolated form listed

Structure (SMILES) | Emax (%) ± SEM [%]
Cc1nc(-c2ccccc2OC[C@@H](O)CNC(C)(C)Cc2ccc(Oc3ncccc3C(N)=O)cc2)[nH]c1C.Cl.Cl [Example 262] | 63.6 ± 4.3
CC(C)(Cc1ccc(Oc2ccc(C(N)=O)nc2)cc1)NC[C@H](O)COc1ccccc1-n1cccc1.Cl [Example 266] | 36.7 ± 6.8
CC(C)(Cc1ccc(Oc2cccnc2C#N)cc1)NC[C@H](O)COc1ccccc1-n1cccc1.Cl [Example 268] | 54.6 ± 8.2
CC(C)(Cc1ccc(Oc2ccccc2C(N)=O)cc1)NC[C@H](O)COc1ccccc1-n1cccc1.Cl [Example 270] | 56.4 ± 8.3
CC(C)(Cc1ccc(Oc2ncccc2C(N)=O)cc1)NC[C@H](O)COc1ccccc1-n1ccc(C#N)c1.Cl [Example 271] | 39.0 ± 0.6
CC(C)(Cc1ccc(Oc2ccc(C(N)=O)cn2)cc1)NC[C@H](O)COc1ccccc1-n1ccc(C#N)c1.Cl [Example 272] | 35.7 ± 2.8
CC(C)(Cc1ccc(Oc2ncccc2C(N)=O)cc1)NC[C@H](O)COc1ccccc1-n1ccc(C=O)c1 [Example 273] | 40.3 ± 0.5
CC(C)(Cc1ccc(Oc2ccc(C(N)=O)cn2)cc1)NC[C@H](O)COc1ccccc1-n1ccc(C=O)c1 [Example 274] | 38.8 ± 1.4
CC(C)(Cc1ccc(Oc2ccncc2)cc1)NC[C@H](O)COc1ccccc1-c1ccno1.O=C(O)C(F)(F)F [Example 287] | 39.9 ± 4.9
CCOC(=O)c1ccc(Oc2ccc(CC(C)(C)NC[C@H](O)COc3ccccc3-c3ccno3)cc2)c(Cl)c1.O=C(O)C(F)(F)F [Example 288] | 52.9 ± 7.4
CC(C)(Cc1ccc(-c2ccccc2C#N)cc1)NC[C@H](O)COc1ccccc1-c1ccno1.O=C(O)C(=O)O [Example 289] | 37.4 ± 7.2
CC(C)(Cc1ccccc1-c1ccc(C#N)cc1)NC[C@H](O)COc1ccccc1-c1ccno1.Cl [Example 290] | 22.7 ± 1.7
CC(C)(Cc1ccc(Oc2cccnc2C#N)cc1)NC[C@H](O)COc1ccccc1-c1ccon1.Cl [Example 297] | 74.5 ± 6.7

The remaining lines, values ahead:

Emax (%) ± SEM [%] | Structure (SMILES)
42.7 ± 9.4 | CC(C)(Cc1ccc(Oc2ccc(S(C)(=O)=O)cc2)cc1)NC[C@H](O)COc1ccccc1-n1cccc1.Cl [Example 265]
41.3 ± 4.2 | CC(C)(Cc1ccc(Oc2ccc(C(N)=O)cc2)cc1)NC[C@H](O)COc1ccccc1-n1cccc1.Cl [Example 269]
24.6 ± 3.8 | CC(C)(Cc1ccc(Oc2ccc(C#N)cn2)cc1)NC[C@H](O)COc1ccccc1-c1cccs1.O=C(O)C(=O)O [Example 285]
72.1 ± 4.5 | CC(C)(Cc1ccc(Oc2ccccc2C#N)cc1)NC[C@H](O)COc1ccccc1-c1cccs1.O=C(O)C(F)(F)F [Example 286]
54.5 ± 0.8 | CC(C)(Cc1ccc(Oc2ccc(C(N)=O)nc2)cc1)NC[C@H](O)COc1ccccc1-c1ccon1.Cl [Example 298]
45.9 ± 3.9 | CC(C)(Cc1ccc(Oc2ccc(C(N)=O)cc2)cc1)NC[C@H](O)COc1ccccc1-c1ccon1.Cl [Example 299]
